According to article PMC6162330, “Insights into a dual function amide oxidase/macrocyclase from lankacidin biosynthesis” (Nature Communications, 2018):

Experiments:
LkcE [1] = target: T1, LkcE (Streptomyces rochei, UniProt G4V2H3); experiment: X-ray crystallography, […] Å; mass spectrometry of released cofactor; format: binding; conditions: non-covalent; co-purified; selenomethionyl holo crystal
T1 construct: recombinant from E. coli (pBG-102), His6-SUMO tag removed by HRV3C protease

LkcE [2] = target: T1, LkcE; experiment: X-ray crystallography, […] Å, co-crystal; format: binding; conditions: active site, one of the two per site, no turnover
[3] = target: LkcE wild type (amide oxidase/macrocyclase of lankacidin biosynthesis, Streptomyces rochei) (Streptomyces rochei); experiment: SAXS; recombinant LkcE in solution; Rg 31.0 Å, Dmax 91 Å; compared with the homodimer's calculated mass and the LkcEWT crystal structure

T1 sequence (G4V2H3 entry or part of it): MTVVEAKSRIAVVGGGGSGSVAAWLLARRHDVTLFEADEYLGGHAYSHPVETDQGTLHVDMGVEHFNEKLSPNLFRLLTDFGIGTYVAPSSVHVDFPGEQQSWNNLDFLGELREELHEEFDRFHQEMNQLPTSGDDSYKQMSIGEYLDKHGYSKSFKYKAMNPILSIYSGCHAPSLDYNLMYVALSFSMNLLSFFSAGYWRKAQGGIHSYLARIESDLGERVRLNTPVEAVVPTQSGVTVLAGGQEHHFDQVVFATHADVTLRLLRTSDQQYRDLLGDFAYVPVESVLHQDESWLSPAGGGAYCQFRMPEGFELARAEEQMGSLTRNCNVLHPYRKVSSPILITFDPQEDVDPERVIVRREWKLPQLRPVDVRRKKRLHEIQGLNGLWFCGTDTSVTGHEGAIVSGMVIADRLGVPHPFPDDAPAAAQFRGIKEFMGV

In the case of `Cc1cc2nc3c(=O)[nH]c(=O)nc-3n(C[C@H](O)[C@H](O)[C@H](O)COP(=O)(O)OP(=O)(O)OC[C@H]3O[C@@H](n4cnc5c(N)ncnc54)[C@H](O)[C@@H]3O)c2cc1C` [FAD], the “X-ray crystallography, 3.15 Å; mass spectrometry of released cofactor” value (LkcE [1]) is reported as “the FAD cofactor is non-covalently bound”.

`CCOC(=O)[C@H](C)C(C)=O` [compound 4, EMAA] was tested, and the “X-ray crystallography, 2.80 Å, co-crystal” value (LkcE [2]; position overlaps DATD) was “clear electron density attributable to EMAA and DATD”.

With `C=CCNC(=O)[C@H](O)[C@@H](O)C(=O)NCC=C` [compound 5, DATD] the “X-ray crystallography, 2.80 Å, co-crystal” value (LkcE [2]; position overlaps EMAA) was “clear electron density attributable to EMAA and DATD”.

Molecule “LkcE wild type (amide oxidase/macrocyclase of lankacidin biosynthesis, Streptomyces rochei) (enzyme)” has a stoichiometry N [3] of 2.
